Assay results taken from patent US8093290B2, “Coolant solutions and compositions comprising the same” (Givaudan SA, priority 2002, dated 2012).

Test system: oral cavity
Assay: observed area of the oral cavity affected by the coolant effect
Conditions: in vivo

CC1CCC(C(C)C)C(OC(=O)C(C)O)C1 (stereo not shown) [Menthyl lactate, menthyl lactate]
area of the oral cavity targeted by the coolant effect: front/middle of the mouth
